Reference: patent US5973006A, “Fluoro-substituted benzoylpropionic acid derivatives” (Pharmacia & Upjohn S.p.A., priority 1995, dated 1999)
Counter-ions that a name gives are not always drawn.

Assays:
[1] = Solubility in water at the indicated pH; assay type: physicochemical
Text: The following Table 2 reports the solubility in water at the indicated pH of a representative compound of the invention (R,S)-2-amino-4-(3',4'-difluorophenyl)-4-oxo-2-butanoic acid hydrochloride (PNU 156830) in comparison with the known reference compound of WO 95/03271: (R,S)-2-amino-4-(3',4'-dichlorophenyl)-4-oxo-butanoic acid hydrochloride (internal code: PNU 156561).

kynurenine-3-hydroxylase [2] = target: T1, kynurenine-3-hydroxylase (Rattus norvegicus, UniProt O88867); test: Kynurenine-3-hydroxylase assay in the rat brain; assay type: biochemical; parameters: from tissue; conditions: rat brain homogenate, 50 μM L-kynurenine, 60 min; read-out: Enzyme Inhibition (Brain) IC50
Procedure: Kynurenine-3-hydroxylase Assay in the Rat Brain
Brain was homogenized in ice-cold 0.32 M sucrose and centrifuged at 12000×g for 30 min at 4° C. The pellet was washed three times with 0.32 M sucrose by centrifugation and suspended in 0.14 M KCl in 20 mM K-phosphate buffer at pH 7 (1 g tissue in 2 ml buffer). The reaction mixture contained: 75 μl of suspended homogenate; 100 μl of substrate solution containing 50 mM K-phosphate buffer pH 7.5, 2 MM MgCl2, 0.4 mM NADPH, and 50 μM L-kynurenine (final concentration),and 25 μl of different concentrations of inhibitor solutions. The reaction was stopped by addition of 200 μl of 1 M HClO4 after 60 min incubation. L-3-hydroxykynurenine formed was quantified by HPLC with coulometric detection at a working voltage of +0.2 V. The column was a 10 cm C18 reversed phase (3 μm. The mobile phase consisted of 950 ml distilled water, 20 ml acetonitrile, 9 ml triethylamine, 5.9 ml phosphoric acid, 100 mg sodium EDTA and 1.5 g heptanesulfonic acid. The flow rate was 1 ml/min.

kynurenine-3-hydroxylase [3] = target: T1, kynurenine-3-hydroxylase; test: Kynurenine-3-hydroxylase assay in the rat liver (mitochondrial extract); assay type: biochemical; parameters: Rat liver mitochondrial extract was used as enzymatic preparation for this assay; from tissue; host or cells: rat liver mitochondrial extract; conditions: 0.025 mM L-kynurenine, 37° C., 30 min, read-out: Enzyme Inhibition (Liver) IC50
Procedure: Kynurenine-3-hydroxylase Assay in the Rat Liver
The assay for kynurenine 3-hydroxylase was based on the enzymatic synthesis of tritiated water during the hydroxylation reaction. Radiolabeled water was quantified following selective adsorption of the isotopic substrate and its metabolite with activated charcoal.
Rat liver mitochondrial extract was used as enzymatic preparation for this assay.
The assay for kynurenine 3-hydroxylase activity was carried out at 37° C. for a time of 30 min. The reaction mixture of a total volume of […] was constituted of […] of suspended extract, 100 mM Tris/Cl buffer pH 8.1, 10 mM EDTA, 100 mM KCl, 0.8 mM NADPH, 0.025 mM L-kynurenine, […] L-(3,5-^3 H)Kynurenine (10 Ci/mmol) and […] of different concentration of inhibitor solutions. After the incubation the reaction was terminated by the addition of 1 mL of 7.5% (w/v) activated charcoal, vortexed and centrifugated for 7 min.
A […] aliquot of supernatant was counted by scintillation spectroscopy in 5 ml of liquid scintillation.

T1 sequence (O88867 whole entry): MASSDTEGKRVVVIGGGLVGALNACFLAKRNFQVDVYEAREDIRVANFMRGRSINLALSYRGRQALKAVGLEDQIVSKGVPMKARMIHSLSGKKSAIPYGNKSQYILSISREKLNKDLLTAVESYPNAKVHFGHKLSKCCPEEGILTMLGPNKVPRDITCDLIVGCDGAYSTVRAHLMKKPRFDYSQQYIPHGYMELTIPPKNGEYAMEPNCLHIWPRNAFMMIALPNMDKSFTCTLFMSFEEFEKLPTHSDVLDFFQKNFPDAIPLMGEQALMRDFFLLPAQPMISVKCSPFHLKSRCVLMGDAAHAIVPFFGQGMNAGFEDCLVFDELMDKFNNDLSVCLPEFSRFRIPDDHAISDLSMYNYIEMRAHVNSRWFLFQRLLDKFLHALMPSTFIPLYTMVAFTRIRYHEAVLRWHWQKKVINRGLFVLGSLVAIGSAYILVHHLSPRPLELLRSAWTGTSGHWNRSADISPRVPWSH

Row | solubility ([1]; pH = 7.4) [mg/mL] | solubility ([1]; pH = 8) [mg/mL] | solubility ([1]; pH = 3) [mg/mL] | IC50 (kynurenine-3-hydroxylase [2]) [nM] | IC50 (kynurenine-3-hydroxylase [3]) [nM] | Compound
1 | 0.2 | 15 |  |  |  | NC(CC(=O)c1ccc(Cl)c(Cl)c1)C(=O)O (racemic) [PNU 156561, (R,S)-2-amino-4-(3',4'-dichlorophenyl)-4-oxo-butanoic acid hydrochloride, reference compound]
2 | 18 | 36 | 38 | 120 | 420 | NC(CC(=O)c1ccc(F)c(F)c1)C(=O)O (racemic) [PNU 156830, (R,S)-2-amino-4-(3',4'-difluorophenyl)-4-oxo-2-butanoic acid hydrochloride]
3 |  |  |  |  | 10900 | N[C@H](CC(=O)c1ccc(F)c(F)c1)C(=O)O [PNU 158392, (R)-2-amino-4-(3',4'-difluorophenyl)-4-oxo-2-butanoic acid hydrochloride]
4 |  |  |  |  | 220 | N[C@@H](CC(=O)c1ccc(F)c(F)c1)C(=O)O [PNU 158393, (S)-2-amino-4-(3',4'-difluorophenyl)-4-oxo-2-butanoic acid hydrochloride]
